Measured values published in US20240301372A1, “TREATMENT FOR HSV-1 USING A MEGANUCLEASE” (priority 2021, published 2024).

Test system: HSV-1
Test: JQ1 reactivation (shedding) mouse model
Type: in vivo, mice
Settings: for shedding of HSV from mucosal surfaces: 50 mg/kg
Method: FIG. 19. Schematic for JQ1 reactivation experiment. Latent infected mice were divided into three experimental groups to determine the effect of JQ1 on HSV reactivation. As illustrated in the figure, Group 1 and Group 2 were JQ1 groups that received a 50 mg/kg intraperitoneal injection of JQ1. Group 3 was the control group, i.e., no JQ1 injection. Group 1 mice received two injections, the first JQ1 injection at 0 hrs and the second JQ1 injection at 12 hrs. Group 2 mice received one injection at 0 hrs. Group 3 mice received one control injection at 0 hrs. To determine shedding from mucosal surfaces, as an indicator of HSV reactivation, mice were swabbed at 0 hrs (control) and this swab was compared to swabs taken at 24 hours, 48 hours, and 72 hours.
To begin, the mouse model for BET induced shedding was verified. In this model, latent infected mice were divided into three experimental groups to determine the effect of the BET inhibitor, JQ1, on HSV-1 reactivation. FIG. 19. As illustrated, Group 1 and Group 2 were JQ1 groups that received 50 mg/kg intraperitoneal injection of JQ1. Group 3 was the control group, i.e., no JQ1 injection. Group 1 mice received two injections, the first JQ1 injection at 0 hrs and the second JQ1 injection at 12 hrs. Group 2 mice received one injection at 0 hrs. Group 3 mice received one control injection at 0 hrs. To determine shedding from mucosal surfaces, as an indicator of HSV-1 reactivation, mice were swabbed at 0 hrs (control) and this swab was compared to swabs taken at 24 hours, 48 hours, and 72 hours. […] FIG. 20B. […] Compare the onset and duration of viral shedding in JQ1 double dose to JQ1 single dose.

Question: What does the source list for `Cc1sc2c(c1C)C(c1ccc(Cl)cc1)=N[C@@H](CC(=O)OC(C)(C)C)c1nnc(C)n1-2` [JQ1, tert-butyl (S)-2-(4-(4-chlorophenyl)-2,3,9-trimethyl-6H-thieno[3,2-f][1,2,4]triazolo[4,3-a][1,4]diazepin-6-yl)acetate]?
Answer: time of peak shedding following JQ1 injection (single dose 50 mg/kg intraperitoneal): 2 days; shedding of HSV from mucosal surfaces (single dose 50 mg/kg intraperitoneal at 0 hrs, swabs 24, 48, 72 hours): Shedding was detected; shedding of HSV from mucosal surfaces (two doses 50 mg/kg intraperitoneal at 0 hrs and 12 hrs): Shedding was also detected
